Eight compounds from patent publication US20240148821A1, “PHARMACEUTICAL USE OF CYCLIC PEPTIDE COMPOUND” (CHUGAI SEIYAKU KABUSHIKI KAISHA, priority 2021, published 2024) can be followed below.

Each structure is given as a SMILES string. pIC50: −log10 of the molar value. Numbered stars: 1 amine (or outer) side, 2 acyl side, 3 side chain; on linkers, the order of the positions; unused ones are H or OH. Bridge positions count the residues as written; N and C are the ends. Square brackets hold non-standard residues; d marks the D form. Peptide text beside a SMILES is read from it. * marks the point of attachment. hPhe(3-Cl-4-CF3) = N[C@@H](CCc1ccc(C(F)(F)F)c(Cl)c1)C(=O)O; hPhe(3-F,4-CF3) = N[C@@H](CCc1ccc(C(F)(F)F)c(F)c1)C(=O)O; NMePhe(4-CF3) = CN[C@@H](Cc1ccc(C(F)(F)F)cc1)C(=O)O; hPhe(4-CF3) = N[C@@H](CCc1ccc(C(F)(F)F)cc1)C(=O)O; X37 = CC(C)(C)NC(=O)COC[C@H](CC(=O)[*:1])N[*:2]; NMePhe(4-Cl) = CN[C@@H](Cc1ccc(Cl)cc1)C(=O)O; NMePhe(4-Me) = CN[C@@H](Cc1ccc(C)cc1)C(=O)O; X2 = COc1ccc(CC[C@H](N[*:1])C(=O)[*:2])cn1; NMedβ3hAla = C[C@H](CC(=O)[*:2])N(C)[*:1]; Phe(3-Cl) = N[C@@H](Cc1cccc(Cl)c1)C(=O)O; NMeGly(cPent) = CN[C@H](C(=O)O)C1CCCC1; Pro(4,4-F2) = O=C(O)[C@@H]1CC(F)(F)CN1; Gly(cPent) = N[C@H](C(=O)O)C1CCCC1; NMeCha = CN[C@@H](CC1CCCCC1)C(=O)O; X76 = C=CC[C@H](CC(=O)[*:2])N[*:1]; Hyp = O=C(O)[C@@H]1C[C@@H](O)CN1; NMeI = CC[C@H](C)[C@H](NC)C(=O)O; NMeD = CN[C@@H](CC(=O)O)C(=O)O; NMeL = CN[C@@H](CC(C)C)C(=O)O; NMeNle = CCCC[C@H](NC)C(=O)O; NMeV = CN[C@H](C(=O)O)C(C)C; d(β3hA) = C[C@@H](N)CC(=O)O; NMeS = CN[C@@H](CO)C(=O)O; NMeA = CN[C@@H](C)C(=O)O; Piperidide = C1CCN(*)CC1; Pyrrolidide = C1CCN(*)C1; Ac5c = NC1(C(=O)O)CCCC1; Aze = O=C(O)[C@@H]1CCN1; Ac4c = NC1(C(=O)O)CCC1; Aib = CC(C)(N)C(=O)O; Isopentyl = CC(C)CC*; Sar = CNCC(=O)O; Propyl = CCC*

For this assay, the target named is protein-protein interaction between Kras and SOS1 (biotin-tagged human Kras loaded with GDP, His-tagged human SOS1) (Homo sapiens (Human), UniProt P01116, G12D). The assay is described as follows: Protein-protein interaction inhibition between Kras and SOS1 (KrasG12D-SOS PPI) using AlphaScreen.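 Also: kras produced in E. coli, Ni-coupled donor beads and streptavidin acceptor beads, excitation 680 nm with emission detected at 520–620 nm via singlet oxygen transfer.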 The format is biochemical. The conditions noted are these: AlphaScreen; biotin-tagged human Kras loaded with GDP, His-tagged human SOS1; read-out: KRAS G12D-SOS PPI IC50. Background: Alpha assays give light when donor and acceptor beads are brought close together.
In general, pIC50 refers to the negative decadic logarithm of the IC50, by convention in mol/L. With `CCCOC[C@H]1C(=O)N(C)CC(=O)N[C@@H](CCc2ccc(C(F)(F)F)c(F)c2)C(=O)N2CCC[C@H]2C(=O)NC2(CCCC2)C(=O)N(C)[C@@H](C2CCCC2)C(=O)N(C)[C@H](C)CC(=O)N(C)[C@@H](CC(C)C)C(=O)N[C@@H]([C@@H](C)CC)C(=O)N(C)[C@@H](C)C(=O)N2CC[C@H]2C(=O)N1C` [Compound 776] (cyclo([Ac5c][NMeGly(cPent)][NMedβ3hAla][NMeL]I[NMeA][Aze][NMeS](Propyl)[Sar][hPhe(3-F,4-CF3)]P)), the pIC50 was 8.14.

For `C=CC[C@@H]1CC(=O)N(C)[C@@H](CC(C)C)C(=O)N[C@@H]([C@@H](C)CC)C(=O)N(C)[C@@H](C)C(=O)N2CC[C@H]2C(=O)N(C)[C@@H](Cc2ccc(C)cc2)C(=O)N(C)CC(=O)N[C@@H](CCc2ccc(C(F)(F)F)c(Cl)c2)C(=O)N2CCC[C@H]2C(=O)NC2(CCCC2)C(=O)N(C)[C@@H]([C@@H](C)CC)C(=O)N1` [Compound 1883] (cyclo([Ac5c][NMeI][X76][NMeL]I[NMeA][Aze][NMePhe(4-Me)][Sar][hPhe(3-Cl-4-CF3)]P)), the pIC50 is 7.19.

`CCO[C@@H]1C[C@H]2C(=O)N(C)[C@@H](COCCC(C)C)C(=O)N(C)[C@@H](CC(C)C)C(=O)N[C@H](C(=O)N3CCCC3)CC(=O)N(C)[C@@H](C)C(=O)N[C@@H]([C@@H](C)CC)C(=O)N(C)CC(=O)N(C)CC(=O)N(C)[C@@H](Cc3ccc(Cl)cc3)C(=O)N(C)CC(=O)N[C@@H](Cc3cccc(Cl)c3)C(=O)N2C1` [Compound 925] ([NMeA]I[Sar][Sar][NMePhe(4-Cl)][Sar][Phe(3-Cl)][Hyp](Et)[NMeS](Isopentyl)[NMeL]D-Pyrrolidide; lactam N-11): the pIC50 was 6.44.

As to `CC[C@H](C)[C@@H]1NC(=O)[C@H](CC(C)C)N(C)C(=O)C[C@@H](C(=O)N2CCCCC2)N(C)C(=O)[C@H](C2CCCC2)N(C)C(=O)C2(CCCC2)NC(=O)[C@@H]2CCCN2C(=O)[C@H](CCc2ccc(OC)nc2)NC(=O)CN(C)C(=O)[C@H](CC2CCCCC2)N(C)C(=O)[C@@H]2CCN2C(=O)[C@H](C)N(C)C1=O` [Compound 2084] ([NMeL]I[NMeA][Aze][NMeCha][Sar][X2]P[Ac5c][NMeGly(cPent)][NMeD]-Piperidide; lactam N-11 (inferred); C-terminus assumed), the negative-log IC50 (pIC50) is 6.89.

Regarding `CC[C@H](C)[C@@H]1NC(=O)[C@H](CC(C)C)N(C)C(=O)C[C@@H](C)NC(=O)[C@H](C2CCCC2)NC(=O)C2(CCCC2)NC(=O)[C@@H]2CCCN2C(=O)[C@H](CCc2ccc(C(F)(F)F)c(Cl)c2)NC(=O)CN(C)C(=O)[C@H](Cc2ccc(C)cc2)N(C)C(=O)[C@@H]2CCN2C(=O)[C@H](C)N(C)C1=O` [Compound 1213] (cyclo([Ac5c][Gly(cPent)][d(β3hA)][NMeL]I[NMeA][Aze][NMePhe(4-Me)][Sar][hPhe(3-Cl-4-CF3)]P)), the pIC50 is 7.77.

`CC[C@H](C)[C@@H]1NC(=O)[C@H](CC(C)C)N(C)C(=O)C[C@@H](C)N(C)C(=O)[C@H]([C@@H](C)CC)N(C)C(=O)C2(CCC2)NC(=O)[C@@H]2CC(F)(F)CN2C(=O)[C@H](CCc2ccc(C(F)(F)F)c(Cl)c2)NC(=O)CN(C)C(=O)[C@H](Cc2ccc(C(F)(F)F)cc2)N(C)C(=O)[C@@H]2CCN2C(=O)[C@H](C)N(C)C1=O` [Compound 462] (cyclo([Ac4c][NMeI][NMedβ3hAla][NMeL]I[NMeA][Aze][NMePhe(4-CF3)][Sar][hPhe(3-Cl-4-CF3)][Pro(4,4-F2)])): the pIC50 was 7.92.

As for `CC[C@H](C)[C@@H]1NC(=O)[C@H](CC(C)C)N(C)C(=O)C[C@@H](COCC(=O)NC(C)(C)C)NC(=O)[C@H](CC(C)C)N(C)C(=O)C(C)(C)NC(=O)[C@H](CC(C)C)N(C)C(=O)[C@H](CCc2ccc(C(F)(F)F)cc2)NC(=O)CN(C)C(=O)[C@H](COCCC(C)C)N(C)C(=O)CN(C)C(=O)CN(C)C1=O` [Compound 1538] ([NMeL]I[Sar][Sar][NMeS](Isopentyl)[Sar][hPhe(4-CF3)][NMeL][Aib][NMeL]; linker N-C via X37), the pIC50 was 6.96.

`CCCC[C@H]1C(=O)N(C)CC(=O)N[C@@H](CCc2ccc(C(F)(F)F)c(Cl)c2)C(=O)N2CCC[C@H]2C(=O)NC2(CCCC2)C(=O)N(C)[C@@H](C(C)C)C(=O)N(C)[C@H](C(=O)N2CCCCC2)CC(=O)N(C)[C@@H](CC(C)C)C(=O)N[C@@H]([C@@H](C)CC)C(=O)N(C)[C@@H](C)C(=O)N2CC[C@H]2C(=O)N1C` [Compound 1712] ([NMeL]I[NMeA][Aze][NMeNle][Sar][hPhe(3-Cl-4-CF3)]P[Ac5c][NMeV][NMeD]-Piperidide; lactam N-11): the pIC50 was 8.01.
